Marks after values point to notes of the source that are not given here. Where no end group is shown, it is not given here.
What was measured:
Candida pseudotropicalis = test: microbe, parasite or virus in culture; details: pH 7
Description: (§1) 5*10^6 cells of Candida pseudotropicalis, Candida albicans 10231, Cryptococcus neoformans, Candida krusei, Candida parapsilosis, Candida glabrata and Candida albicans 32354 and an ergosterol-deficient mutant thereof were incubated for one and a half hours at 37° C. in the presence of a dilution series of a peptide according to the invention or amphotericin B in 1 mM potassium phosphate buffer, pH 7.0. The viability was determined by plating out. Used as positive control was synthetic PGLa (“Protein beginning with Glycine and ending with Leucin-amide”, with the amino acid sequence […]-amide).

Candida albicans 10231 = test: microbe, parasite or virus in culture; details: 10231, pH 7
Description: as §1

Candida glabrata = test: microbe, parasite or virus in culture; details: pH 7
Description: as §1

Cryptococcus neoformans = test: microbe, parasite or virus in culture; details: pH 7
Description: as §1

Candida krusei = test: microbe, parasite or virus in culture; details: pH 7
Description: as §1

Candida parapsilosis = test: microbe, parasite or virus in culture; details: pH 7
Description: as §1

[1] = tested on: Streptococcus mutans (R9); test: Antibacterial activity against monocultures in vitro (viability counts); type: cell-based; details: 0.5 h, 100 μg/ml
Description: (§2) Monocultures of the bacteria Streptococcus mutans (R9), Strentococcus sanguis (SB 179), Streptococcus salivarius (SS 196), Actinomyces naeslundii (WVU 627), Fusobacterium nucleatum (ATCC 10953), Prevotella intermedia ([…]) and Veillonella parvula (ATCC 17745) were cultured to a late log phase in BHI (Difco), washed three times in 10 mM potassium phosphate buffer (PPB) and diluted to a suspension of 10^6 CFU/ml. […] The control treatment was performed in 10 mM without peptide.

[2] = tested on: Strentococcus sanguis (SB 179); test: as above; type: cell-based; details: Streptococcus sanguis, 0.5 h, 100 μg/ml
Description: as §2

[3] = tested on: Fusobacterium nucleatum (ATCC 10953); test: as above; type: cell-based; details: 0.5 h, 100 μg/ml
Description: as §2

[4] = tested on: Veillonella parvula (ATCC 17745); test: as above; type: cell-based; details: 0.5 h, 100 μg/ml
Description: as §2

[5] = tested on: Streptococcus salivarius (SS 196); test: as above; type: cell-based; details: 0.5 h, 100 μg/ml
Description: as §2

[6] = tested on: Actinomyces naeslundii (WVU 627); test: as above; type: cell-based; details: 0.5 h, 100 μg/ml
Description: as §2

Lactobacillus rhamnosus = test: Inhibition of lactic acid production; type: cell-based; details: L. rhamnosus; 1 hour in 10 mM PPB with glucose
Description: (§3) All peptides according to the invention were tested for their capacity to inhibit the lactic acid production of the bacteria Streptococcus sanguis, Streptococcus mutans, Streptococcus salivarius and Lactobacillus rhamnosus. The formation of lactic acid is a measure for the metabolic activity. For this purpose cultures of bacteria cells were incubated for 1 hour in 10 mM PPB with 0.5 glucose and different concentrations of the peptides. The formation of lactic acid was monitored by means of spectrophotometry.

Streptococcus mutans = test: Inhibition of lactic acid production; type: cell-based; details: S. mutans; 1 hour in 10 mM PPB with glucose
Description: as §3

Streptococcus salivarius = test: Inhibition of lactic acid production; type: cell-based; details: S. salivarius; 1 hour in 10 mM PPB with glucose
Description: as §3

Streptococcus sanguis = test: Inhibition of lactic acid production; type: cell-based; details: S. sanguis; 1 hour in 10 mM PPB with glucose
Description: as §3

Torulopsis glabrata = test: Growth inhibition on agar with spotted peptide; type: cell-based; parameters: key: “+” designates full growth inhibition; “+/−” designates partial inhibition; “−” signifies no inhibition; details: T. glabrata on agar, 10 μg peptide spotted
Description: (§4) The growth of the yeast Candida albicans, Torulopsis glabrata and meticillin-resistant Staphylococcus aureus (MRSA) was tested by growing them on agar on which 10 μg of each of the peptides according to the invention was spotted. […] “+” designates full growth inhibition, “+/−” designates partial inhibition and “−” signifies no inhibition.

Candida albicans = test: Growth inhibition on agar with spotted peptide; type: cell-based; parameters: key: “+” designates full growth inhibition; “+/−” designates partial inhibition; “−” signifies no inhibition; details: C. albicans on agar, 10 μg peptide spotted
Description: as §4

[7] = tested on: meticillin-resistant Staphylococcus aureus (MRSA); test: Growth inhibition on agar with spotted peptide; type: cell-based; parameters: key: “+” designates full growth inhibition; “+/−” designates partial inhibition; “−” signifies no inhibition; details: 10 μg peptide spotted
Description: as §4

Salmonella typhimurium = test: Killing of Salmonella by peptide 10 (CFU over time); type: cell-based; details: 50 μg/ml, culture with 10^4 Salmonella typhimurium, CFU at 0, 1, 2 and 3 hours (FIG. 3A)
Description: (§5) Peptide 10 was added in a concentration of 50 μg/ml to a culture with 10^4 Salmonella typhimurium bacteria. For control purposes a culture to which nothing was added was included as blank. The number of CFU was determined at the points in time 0, 1, 2 and 3 hours. The same was done with Yersinia enterocolitica (PYv+). […] Particular peptides are also found to have a killing effect on micro-organisms which are resistant to antimicrobial agents used at present.

[8] = tested on: Yersinia enterocolitica (PYv+); test: Killing of Yersinia by peptide 10 (CFU over time); type: cell-based; details: 50 μg/ml, CFU at 0, 1, 2 and 3 hours (FIG. 3B)
Description: as §5

[9] = tested on: Prevotella intermedia (T588); test: Antibacterial activity against monocultures in vitro (viability counts); type: cell-based; details: 0.5 h, 100 μg/ml
Description: as §2

[10] = tested on: bacteria collected from saliva; test: Antimicrobial activity on oral bacteria; type: cell-based; details: 0.5 h, 100 μg/ml
Description: (§6) In order to determine whether the peptides according to the invention are also active against bacteria such as are encountered in the mouth, bacteria were collected from saliva and plaque. Saliva was shaken on a vortex mixer and centrifuged.

[11] = tested on: bacteria from disrupted plaque; test: Antimicrobial activity on oral bacteria; type: cell-based; details: 0.5 h, 100 μg/ml
Description: as §6

[12] = tested on: bacteria collected from plaque; test: Antimicrobial activity on oral bacteria; type: cell-based; details: 0.5 h, 100 μg/ml
Description: as §6

[13] = tested on: bacteria from cultured plaque; test: Antimicrobial activity on oral bacteria; type: cell-based; details: 0.5 h, 100 μg/ml
Description: as §6

Candida albicans 32354 = test: microbe, parasite or virus in culture; details: 32354, pH 7
Description: as §1

Compound	IC50 values (50% of the inoculum is killed) (Candida pseudotropicalis) [µg/mL]	IC50 values (50% of the inoculum is killed) (Candida albicans 10231) [µg/mL]	IC50 values (50% of the inoculum is killed) (Candida glabrata) [µg/mL]	IC50 values (50% of the inoculum is killed) (Cryptococcus neoformans) [µg/mL]	IC50 values (50% of the inoculum is killed) (Candida krusei) [µg/mL]	IC50 values (50% of the inoculum is killed) (Candida parapsilosis) [µg/mL]	% reduction in viability counts [1]	% reduction in viability counts [2]	% reduction in viability counts [3]	% reduction in viability counts [4]	% reduction in viability counts [5]	% reduction in viability counts [6]	inhibition of lactic acid production (Lactobacillus rhamnosus)	inhibition of lactic acid production (Streptococcus mutans)	inhibition of lactic acid production (Streptococcus salivarius)	inhibition of lactic acid production (Streptococcus sanguis)	growth inhibition (Torulopsis glabrata)	growth inhibition (Candida albicans)	growth inhibition [7]	% reduction in viability counts [9]	further results
SSSKEENRIIPGGI [negative control, SSSKEENRIIPGGI]	>67	>67	>67	>67	>67	>67															
C[C@H](NC(=O)[C@H](Cc1cnc[nH]1)NC(=O)[C@H](CO)NC(=O)[C@@H](N)CC(=O)O)C(=O)N[C@@H](CCCCN)C(=O)N[C@@H](CCCNC(=N)N)C(=O)N[C@@H](Cc1cnc[nH]1)C(=O)N[C@@H](Cc1cnc[nH]1)C(=O)NCC(=O)N[C@@H](Cc1ccc(O)cc1)C(=O)N[C@@H](CCCCN)C(=O)N[C@@H](CCCNC(=N)N)C(=O)N[C@@H](CCCCN)C(=O)N[C@@H](Cc1ccccc1)C(=O)N[C@@H](Cc1cnc[nH]1)C(=O)N[C@@H](CCC(=O)O)C(=O)N[C@@H](CCCCN)C(=O)N[C@@H](Cc1cnc[nH]1)C(=O)N[C@@H](Cc1cnc[nH]1)C(=O)N[C@@H](CO)C(=O)N[C@@H](Cc1cnc[nH]1)C(=O)N[C@@H](CCCNC(=N)N)C(=O)NCC(=O)N[C@@H](Cc1ccc(O)cc1)C(=O)O [histatin 5, reference compound]							−49.5%	69.5%	49.3%	26.9%	38.3%	−11.6%	− (“−” signifies no inhibition of lactic acid formation at >100 μg/ml peptide)	− (“−” signifies no inhibition of lactic acid formation at >100 μg/ml peptide)	− (“−” signifies no inhibition of lactic acid formation at >100 μg/ml peptide)	− (“−” signifies no inhibition of lactic acid formation at >100 μg/ml peptide)	−	−	−		
KRLFKKLLFSLRKY [peptide 10, KRLFKKLLFSLRKY]													+ (“+” designates full inhibition at 4-20 μg/ml peptide)	+ (“+” designates full inhibition at 4-20 μg/ml peptide)	+ (“+” designates full inhibition at 4-20 μg/ml peptide)	+ (“+” designates full inhibition at 4-20 μg/ml peptide)	+	+	+		number of bacteria (CFU) after adding peptide (Salmonella typhimurium): below the detection limit; number of bacteria (CFU) after adding peptide [8]: below the detection limit
KRLFKELKFSLRKY-OH [peptide 3, KRLFKELKFSLRKY]							>99.9* %	99.6 (0.30)* %	92.9 (3.00)* %	>99.9* %	>99.9* %	>99.9* %	+ (“+” designates full inhibition at 4-20 μg/ml peptide)	+ (“+” designates full inhibition at 4-20 μg/ml peptide)	+ (“+” designates full inhibition at 4-20 μg/ml peptide)	+ (“+” designates full inhibition at 4-20 μg/ml peptide)	+	+	+/−	−57.8 (77.9) %	
GHMASKGAIAGKIAKVALKAL-NH2 [positive control peptide]	1	1	9	0.5	1	1	>99.9%	>99.9* %	>99.9* %	>99.9* %	>99.9* %	>99.9* %								98.0%	% reduction in viability counts, total Gram-negative average [10]: 97.7%; % reduction in viability counts, total aerobic average [10]: 60.1%; % reduction in viability counts, total anaerobic average [10]: 73.2%; % reduction in viability counts, total Gram-negative average [11]: 45.9%; % reduction in viability counts, total aerobic average [11]: 41.7%; % reduction in viability counts, total anaerobic average [11]: 68.5%; % reduction in viability counts, total Gram-negative average [12]: 84.0%; % reduction in viability counts, total aerobic average [12]: 58.5%; % reduction in viability counts, total anaerobic average [12]: 51.5%; % reduction in viability counts, total Gram-negative average [13]: 83.7%; % reduction in viability counts, total aerobic average [13]: 20.6%; % reduction in viability counts, total anaerobic average [13]: 87.2%; IC50 values (50% of the inoculum is killed) (Candida albicans 32354): 1 µg/mL
